This is an account of results in the supplement of paper PMC10307832.

Common to all, as to test: relative viability (nuclei count vs DMSO), 5 days (fraction); higher = more cells survive
Compound in assay [1]: CC1=CC=C(C=C1)C(=O)CN2C3=C(CCCC3)SC2=N [Pifithrin_alpha] + Cc1cc(Nc2cc(N3CCN(C)CC3)nc(Sc3ccc(NC(=O)C4CC4)cc3)n2)n[nH]1 [Tozasertib] (partner 0.1 µM)
The essentials: (§1)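 A single step with final 0.05% Triton X-100, 1% formaldehyde and 1 ug/ml Hoechst fixed the cells and stained nuclei 5 days after treatment. Lung cancer cell lines in 1536-well plates had been treated by pin tool the day after seeding with one drug alone or a fixed anchor-drug dose plus five library-drug doses (not always all listed) in √10 steps, and nuclei were counted on 4× images. Relative viability is the ratio of nuclei in treated wells to nuclei in vehicle wells, taken as the median of duplicate plates.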

Compound in assay [2]: CC1=CC=C(C=C1)C(=O)CN2C3=C(CCCC3)SC2=N [Pifithrin_alpha] + Cc1nc(NC(=O)N2CCC[C@H]2C(N)=O)sc1-c1ccnc(C(C)(C)C(F)(F)F)c1 [Alpelisib] (partner 2 µM)
The essentials:
as §1

Compound in the assay “Axitinib + Lapatinib”: CNC(=O)c1ccccc1Sc1ccc2c(/C=C/c3ccccn3)n[nH]c2c1 [Axitinib] + CS(=O)(=O)CCNCc1ccc(-c2ccc3ncnc(Nc4ccc(OCc5cccc(F)c5)c(Cl)c4)c3c2)o1 [Lapatinib] (partner 2 µM)
The gist of the method: as §1

Compound in the assay “Axitinib + Phenformin”: CNC(=O)c1ccccc1Sc1ccc2c(/C=C/c3ccccn3)n[nH]c2c1 [Axitinib] + N=C(N)NC(=N)NCCc1ccccc1 [Phenformin] (partner 250 µM)
The gist of the method:
as §1

With NCI-H650, the relative viability stood at 0.79 in assay [1] (first compound 3.162 µM); 0.678 in assay [1] (first compound 10 µM); 0.548 in assay [1] (first compound 31.62 µM); 0.624 in assay [1] (first compound 100 µM); 1.12 in assay [2] (first compound 3.162 µM); 1.13 in assay [2] (first compound 10 µM). In addition, the relative viability in assay [2] (first compound 31.62 µM) is 0.755; in assay [2] (first compound 100 µM), 1.09; in the assay with Axitinib + Lapatinib (first compound 0.005 µM) it was 0.792; with Axitinib + Lapatinib (first compound 0.01581 µM), 0.837; with Axitinib + Lapatinib (first compound 0.05 µM), 1.08; in the assay with Axitinib + Lapatinib (first compound 0.1581 µM), 0.919. For the same cell line, the relative viability was 0.932 with Axitinib + Lapatinib (first compound 0.5 µM); 0.462 in the assay with Axitinib + Phenformin (first compound 0.005 µM); 0.434 with Axitinib + Phenformin (first compound 0.01581 µM); 0.483 in the assay with Axitinib + Phenformin (first compound 0.05 µM); 0.424 with Axitinib + Phenformin (first compound 0.1581 µM); 0.471 with Axitinib + Phenformin (first compound 0.5 µM).
